Publication PMC10590756, “Glutarate regulates T cell metabolism and anti-tumour immunity” (Nature Metabolism, 2023)

Tests used:
[1] = molecular target: T1, PDHE2 K259 in HeLa cells (Homo sapiens, UniProt P10515); experiment: Proteomic analysis of PTMs on immunoprecipitated PDHE2; format: cell-based; conditions: 500 µM DEG, 24 h
T1 construct: Proteomic analysis of PDHE2 immunoprecipitated from HeLa cells; endogenous in cells; host or cells: HeLa cells
Protocol: HeLa cells were lysed on ice for 30 min in a HEPES buffer (150 mM NaCl, 50 mM HEPES, pH 7.0, 1% IGEPAL CA-630, 1 mM nicotinamide (Sigma-Aldrich), 5 mM Tris(2-carboxyethyl)phosphine hydrochloride (Sigma-Aldrich), 1× Complete Protease Inhibitor Cocktail (Roche) and 1 mM phenylmethylsulfonyl fluoride). Lysates were centrifuged at 14,000g for 10 min at 4 °C. Free thiols were blocked by adding 10 mM N-ethylmaleimide (NEM) (Sigma-Aldrich) and incubated on a rotator at 4 °C for 1 h. Lysates were immunoprecipitated by incubation with protein G Dynabeads (catalogue no. 10003D, Invitrogen), first for 1 h to pre-clear, and then overnight with the DLAT antibody (12362S (4A4-B6-C10), Cell Signaling Technology). […]
Raw files were processed using PEAKS Studio (v.8.0, Bioinformatics Solutions) with the following parameters: enzyme: AspN, human database (UniProt reference proteome downloaded 21 January 2021 containing 20,541 proteins) with additional contaminant database (containing 246 common contaminants); variable modifications at PEAKS database stage: oxidation, carbamidomethylation, lipoylation, 1× and 2× NEM, glutaryl lipoate, NEM glutaryl lipoate and 309 built-in modifications at PEAKS PTM stage. The area under the curve (AUC) values for each peptide were extracted from the PEAKS peptide list, with AUCs calculated by PEAKS.

[2] = test system: CD8^+ T cells; experiment: Seahorse analysis of ECAR and OCR (GST, MST, fuel flex test); format: cell-based, human
Protocol: To explore further the metabolic consequences of this observed glutarate-induced reduction in PDHc activity, we performed a glycolysis stress test (GST). Acute effects were determined by treating CD8^+ T cells with DEG for 30 min while plated in the Seahorse XF Analyzer. Chronic effects were determined by performing a standard GST in CD8^+ T cells that had been cultured with DEG for 7 days before assay.
To better understand the consequences of providing glutarate as a fuel for mitochondrial oxidation, we measured cellular oxygen consumption while inhibiting, in different combinations, fatty acid, glucose and glutamine oxidation, the three main fuel sources for mitochondrial oxidation (Extended Data Fig. 4i). This was achieved via injection of etomoxir, UK5099 and Bis-2-(5-phenylacetamido-1,3,4-thiadiazol-2-yl)ethyl sulphide (BPTES), respectively, in cells plated in a Seahorse XF Analyzer.
A Seahorse XFe bioanalyzer was used to measure the OCR and ECAR. A total of 1.5 × 10^5 CD8^+ T cells per well were spun onto poly-D-lysine-coated (catalogue no. P7280, Sigma-Aldrich) Seahorse plates and preincubated at 37 °C for a minimum of 30 min in the absence of CO2 in Seahorse XF RPMI medium, pH 7.4 (10376-100, Agilent), supplemented with 10 mM glucose (catalogue no. A2494001, Thermo Fisher Scientific) and 2 mM glutamine (catalogue no. 25030081, Thermo Fisher Scientific). A minimum of five technical replicates per biological replicate were used. For the MST and GST, OCR and ECAR were measured under basal conditions and after the addition of the following: 750 µM DEG (catalogue no. QB-1473, Combi-block), 0.05% DMSO, 1 μM oligomycin (catalogue no. 75351, Sigma-Aldrich), 1.5 μM FCCP (catalogue no. C2920, Sigma-Aldrich), 100 nM rotenone + 1 μM antimycin A (catalogue nos. R8875 and A8674, Sigma-Aldrich), 10 mM glucose and 50 mM 2-DG (catalogue no. B1048-100, BioVision) as indicated. To assess mitochondrial fuel use, OCR was measured subsequent to the addition of the following drugs in different combinations as indicated: 3 µM BPTES (catalogue no. SML0601, Sigma-Aldrich), 2 µM UK-5099 (catalogue no. PZ0160, Sigma-Aldrich) and 4 µM etomoxir (catalogue no. E1905, Sigma-Aldrich). Assay parameters were as follows: 3 min mix, no wait, 3 min measurement, repeated 3–5 times at basal and after each addition. Measurements were taken using a 96-well Extracellular Flux Analyzer (Seahorse Bioscience).

[3] = test system: 5hmC (the reaction product of TET2) in human CD8^+ T cells; experiment: 5hmC staining by flow cytometry; format: cell-based; conditions: DEG 7 days, dose-dependent
Protocol: For 5-hydroxymethylcytosine (5hmC) staining, cells were stained for surface antigens as above and then fixed and permeabilized with the Transcription Factor Buffer Set. Next cells were incubated with 4 M HCl for 10 min at room temperature. Cells were then thoroughly washed and incubated in blocking buffer (0.1% PBS-Triton X-100, 5% FCS) for 30 min at 4 °C. Cells were then incubated with primary anti-5hmC (catalogue no. 10013602, Active Motif) overnight at 4 °C and the day after with secondary antibody for 1 h at room temperature. Flow cytometry was then performed as explained above. Cells were sorted on an FACSAria III (BD Biosciences) after surface antigen staining as described above. Data were analysed using FlowJo v.10.7.2.

[4] = fuel flex test, 500 µM DEG, 7 days, other fuel sources limited

T1 sequence (P10515 87-647): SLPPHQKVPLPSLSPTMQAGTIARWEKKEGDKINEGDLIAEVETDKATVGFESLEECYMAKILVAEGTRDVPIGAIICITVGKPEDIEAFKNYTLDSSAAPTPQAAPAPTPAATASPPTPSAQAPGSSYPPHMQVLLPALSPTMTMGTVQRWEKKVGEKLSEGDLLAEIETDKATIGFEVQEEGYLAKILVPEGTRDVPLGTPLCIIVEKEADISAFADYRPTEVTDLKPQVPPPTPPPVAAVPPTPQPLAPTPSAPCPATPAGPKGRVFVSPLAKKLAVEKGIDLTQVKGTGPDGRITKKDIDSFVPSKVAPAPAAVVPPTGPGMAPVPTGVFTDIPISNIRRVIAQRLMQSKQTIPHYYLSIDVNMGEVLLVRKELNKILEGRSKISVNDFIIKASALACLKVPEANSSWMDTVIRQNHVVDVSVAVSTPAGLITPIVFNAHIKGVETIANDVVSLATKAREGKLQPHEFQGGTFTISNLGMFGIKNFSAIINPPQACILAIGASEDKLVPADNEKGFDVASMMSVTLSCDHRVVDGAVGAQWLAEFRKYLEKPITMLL

CCOC(=O)CCCC(=O)OCC [DEG, Diethyl glutarate]
levels of glutaryl-lipoyl K259 of PDHE2 [1]: increasing | levels of lipoyl K259 of PDHE2 [1]: reduced | maximal OCR, cells treated 7 days with DEG ([2]; 500 µM DEG, 7 days): reduced maximal OCR | basal oxygen consumption rates (OCRs) ([2]; 500 µM DEG, acute and chronic, with or without glucose and glutamine): either maintained or increased | basal extracellular acidification rate (ECAR) ([2]; DEG 30 min (acute) or 7 days (chronic)): increases | glycolytic rate (GST), acute exposure ([2]; DEG 30 min in the Seahorse XF Analyzer): increased glycolytic rate | effect of FCCP on OCR (MST), cells treated acutely with DEG ([2]; acute DEG): did not have an effect | glycolytic rate (GST), chronic exposure ([2]; cultured with DEG for 7 days): increased glycolytic rate | dependence on fatty acid, glucose and glutamine oxidation ([2]; fuel flex test, 500 µM DEG, 7 days): not more dependent | capacity to oxidize fatty acids [2, 4]: increased capacity | capacity to oxidize glucose [2, 4]: increased capacity | 5hmC levels [3]: decrease
